# From patent US20180099931A1 (AbbVie S.à.r.l., priority 2016, published 2018)
# Where two headings read alike, the source gives them in different places.
# Target: T1, F508delCFTR (Homo sapiens, UniProt P13569, DEL508-508)
# T1 construct: expressed in transfected cells; host or cells: CFBE41o- human lung-derived epithelial cells (CFBE4lo-F508delCFTR-HRP), doxycycline-inducible
# Test: Cell Surface Expression-Horse Radish Peroxidase (CSE-HRP) Assay;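 as to Maximum % activity (with co-corrector): co-corrector and positive control are both the same reference corrector at 2 µM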;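 as to Maximum % activity (without co-corrector): percent of the 2 µM on-plate positive control corrector response above DMSO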
# Assay type: cell-based
# Settings: for Emax / Maximum % activity (with co-corrector): maximum at any tested concentration, normalized to on-plate positive control; for Emax: read-out: Maximum % activity (without co-corrector)
# [1] = test compound without co-corrector
# [2] = test compound without co-corrector, read-out: EC50 (without co-corrector)
# [3] = with co-corrector (2 μM of 3-[(2R,4R)-4-({[1-(2,2-difluoro-1,3-benzodioxol-5-yl)cyclopropyl]carbonyl}amino)-7-methoxy-3,4-dihydro-2H-chromen-2-yl]benzoic acid)
# [4] = with co-corrector (2 μM of 3-[(2R,4R)-4-({[1-(2,2-difluoro-1,3-benzodioxol-5-yl)cyclopropyl]carbonyl}amino)-7-methoxy-3,4-dihydro-2H-chromen-2-yl]benzoic acid), read-out: EC50 (with co-corrector)
# T1 sequence (P13569 with tags, fused parts or gaps DEL508-508): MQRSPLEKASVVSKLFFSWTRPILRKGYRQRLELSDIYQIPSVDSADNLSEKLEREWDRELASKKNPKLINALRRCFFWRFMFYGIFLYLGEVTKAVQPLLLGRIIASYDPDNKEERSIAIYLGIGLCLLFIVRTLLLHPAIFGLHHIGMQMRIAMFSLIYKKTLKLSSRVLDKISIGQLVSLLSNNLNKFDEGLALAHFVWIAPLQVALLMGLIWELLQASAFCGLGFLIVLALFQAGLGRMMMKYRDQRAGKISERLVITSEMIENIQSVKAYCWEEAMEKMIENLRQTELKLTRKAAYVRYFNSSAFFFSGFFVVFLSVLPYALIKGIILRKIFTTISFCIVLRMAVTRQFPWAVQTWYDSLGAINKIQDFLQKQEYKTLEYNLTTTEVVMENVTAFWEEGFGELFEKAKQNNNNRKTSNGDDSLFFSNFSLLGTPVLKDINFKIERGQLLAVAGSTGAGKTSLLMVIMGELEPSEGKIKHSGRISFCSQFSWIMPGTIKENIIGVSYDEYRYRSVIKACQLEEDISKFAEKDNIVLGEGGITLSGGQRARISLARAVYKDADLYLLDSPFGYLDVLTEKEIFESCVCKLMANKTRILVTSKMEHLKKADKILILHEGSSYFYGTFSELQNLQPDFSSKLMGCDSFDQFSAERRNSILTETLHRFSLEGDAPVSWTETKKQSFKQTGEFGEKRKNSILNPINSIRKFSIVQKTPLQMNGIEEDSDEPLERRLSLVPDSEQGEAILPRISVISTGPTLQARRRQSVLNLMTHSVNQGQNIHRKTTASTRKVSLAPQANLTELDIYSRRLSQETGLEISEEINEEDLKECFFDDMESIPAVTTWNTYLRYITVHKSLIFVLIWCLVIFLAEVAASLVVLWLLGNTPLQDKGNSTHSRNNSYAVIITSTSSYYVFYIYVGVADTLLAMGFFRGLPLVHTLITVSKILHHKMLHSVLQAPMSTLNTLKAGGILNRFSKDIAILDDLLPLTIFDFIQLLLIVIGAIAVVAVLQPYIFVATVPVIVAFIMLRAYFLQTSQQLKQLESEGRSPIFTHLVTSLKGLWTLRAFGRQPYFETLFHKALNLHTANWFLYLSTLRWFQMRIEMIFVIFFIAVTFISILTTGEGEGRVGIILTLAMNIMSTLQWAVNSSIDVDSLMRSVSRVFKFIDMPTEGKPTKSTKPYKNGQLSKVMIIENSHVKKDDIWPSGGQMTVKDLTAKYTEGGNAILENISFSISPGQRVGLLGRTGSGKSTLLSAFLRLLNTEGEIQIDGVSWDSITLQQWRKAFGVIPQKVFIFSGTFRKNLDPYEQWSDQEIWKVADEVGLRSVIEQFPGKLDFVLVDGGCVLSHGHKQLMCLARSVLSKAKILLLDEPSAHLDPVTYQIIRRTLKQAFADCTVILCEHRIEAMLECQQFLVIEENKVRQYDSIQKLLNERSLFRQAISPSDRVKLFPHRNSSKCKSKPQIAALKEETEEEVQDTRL
Compound,Emax [1],EC50 [2],Maximum % activity (with co-corrector) [3],EC50 [4]
COc1ccc(C(F)(F)F)cc1CN[C@H]1[C@H](C(C)(C)C)[C@@H](C(=O)O)N(C(=O)C2CCc3ccc(F)cc3O2)[C@H]1c1ccccc1 (some centres unmarked) [II-398],< 100%,1000 to 10000 nM,+++ (≥350),1000 to 10000 nM
COc1ccc(C(F)(F)F)cc1CN[C@H]1[C@H](C(C)(C)C)[C@@H](C(=O)O)N(C(=O)C(Oc2ccc(Cl)cc2)C(C)C)[C@H]1c1ccccc1 (some centres unmarked) [II-399],100 to 200%,< 1000 nM,+++ (≥350),< 1000 nM
COc1ccc(C2(C#N)CC2)cc1CN[C@H]1[C@H](C(C)(C)C)[C@@H](C(=O)O)N(C(=O)C2CCCCC2)[C@H]1c1ccccc1 [II-400],100 to 200%,1000 to 10000 nM,+++ (≥350),1000 to 10000 nM
COc1ccc(C(C)(C)C)cc1CN[C@H]1[C@H](C(C)(C)C)[C@@H](C(=O)O)N(C(=O)C2CCC(C)(C)C2)[C@H]1c1ccccc1 (some centres unmarked) [II-401],> 200%,1000 to 10000 nM,+++ (≥350),< 1000 nM
COc1ccc(C(C)(C)C)cc1CN[C@H]1[C@H](C(C)(C)C)[C@@H](C(=O)O)N(C(=O)C2COc3c(cccc3OC)C2)[C@H]1c1ccccc1 (some centres unmarked) [II-402],> 200%,1000 to 10000 nM,+++ (≥350),< 1000 nM
COc1cnc(C2CC3CCC2C3)cc1CN[C@H]1[C@H](C(C)(C)C)[C@@H](C(=O)O)N(C(=O)C2CCCCC2)[C@H]1c1ccccc1 (some centres unmarked) [II-403],100 to 200%,1000 to 10000 nM,+++ (≥350),1000 to 10000 nM
COc1cnc(C2CCCCC2)cc1CN[C@H]1[C@H](C(C)(C)C)[C@@H](C(=O)O)N(C(=O)C2CCCCC2)[C@H]1c1ccccc1 [II-404],< 100%,1000 to 10000 nM,+++ (≥350),1000 to 10000 nM
COc1ncc(-c2ccccc2F)cc1CN[C@H]1[C@H](C(C)(C)C)[C@@H](C(=O)O)N(C(=O)C2CCCCC2)[C@H]1c1cccnc1N(C)C [II-405],> 200%,1000 to 10000 nM,+++ (≥350),1000 to 10000 nM
COc1ncc(-c2ccc(F)cc2F)cc1CN[C@H]1[C@H](C(C)(C)C)[C@@H](C(=O)O)N(C(=O)C2CCCCC2)[C@H]1c1cccnc1N(C)C [II-406],100 to 200%,< 1000 nM,+++ (≥350),< 1000 nM
COc1cccc(OC)c1CN[C@H]1[C@H](C(C)(C)C)[C@@H](C(=O)O)N(C(=O)C2CCCCC2)[C@H]1c1ccccc1 [II-407],100 to 200%,1000 to 10000 nM,+++ (≥350),1000 to 10000 nM
COc1ccc(C(F)(F)F)nc1CN[C@H]1[C@H](C(C)(C)C)[C@@H](C(=O)O)N(C(=O)C2CCCCC2)[C@H]1c1ccccc1 [II-408],100 to 200%,1000 to 10000 nM,+++ (≥350),1000 to 10000 nM
COc1ncc(-c2ccc(F)cc2C)cc1CN[C@H]1[C@H](C(C)(C)C)[C@@H](C(=O)O)N(C(=O)C2CCCCC2)[C@H]1c1cccnc1N(C)C [II-409],100 to 200%,1000 to 10000 nM,+++ (≥350),< 1000 nM
COc1ncc(-c2ccc(C)cc2)cc1CN[C@H]1[C@H](C(C)(C)C)[C@@H](C(=O)O)N(C(=O)C2CCCCC2)[C@H]1c1cccnc1N(C)C [II-410],100 to 200%,< 1000 nM,+++ (≥350),< 1000 nM
COc1ccc(C(C)(C)C)cc1CN[C@H]1[C@H](C(C)(C)C)[C@@H](C(=O)O)N(C(=O)C2=C(F)CCCC2)[C@H]1c1ccccc1 [II-411],> 200%,1000 to 10000 nM,+++ (≥350),< 1000 nM
COc1ccc(C(C)(C)C)cc1CN[C@@H]1[C@@H](C(C)(C)C)[C@@H](C(=O)O)N(C(=O)C2CCCCC2)[C@H]1c1ccccc1 [II-412],< 100%,1000 to 10000 nM,++ (≥150 and <350),1000 to 10000 nM
COc1ccc(C(F)(F)F)cc1CN[C@@H]1[C@@H](C(C)(C)C)[C@@H](C(=O)O)N(C(=O)C2CCCCC2)[C@H]1c1ccccc1 [II-413],< 100%,1000 to 10000 nM,++ (≥150 and <350),1000 to 10000 nM
COc1ccc(C(C)(C)C)cc1CN[C@H]1[C@H](C(C)(C)C)[C@@H](C(=O)O)N(C(=O)C(Oc2ccccc2C)C(C)C)[C@H]1c1ccccc1 (some centres unmarked) [II-415],> 200%,1000 to 10000 nM,+++ (≥350),< 1000 nM
COc1cnc(-c2ccc(C)cc2F)cc1CN[C@H]1[C@H](C(C)(C)C)[C@@H](C(=O)O)N(C(=O)C2CCCCC2)[C@H]1c1ccccc1 [II-416],100 to 200%,< 1000 nM,+++ (≥350),< 1000 nM
COc1cnc(-c2ccccc2F)cc1CN[C@H]1[C@H](C(C)(C)C)[C@@H](C(=O)O)N(C(=O)C2CCCCC2)[C@H]1c1ccccc1 [II-417],100 to 200%,1000 to 10000 nM,+++ (≥350),1000 to 10000 nM
COc1cccc(-c2cc(CN[C@H]3[C@H](C(C)(C)C)[C@@H](C(=O)O)N(C(=O)C4CCCCC4)[C@H]3c3ccccc3)c(OC)cn2)c1 [II-418],< 100%,1000 to 10000 nM,+++ (≥350),1000 to 10000 nM
COc1ccc(C(C)(C)C)cc1CN[C@H]1[C@H](C(C)(C)OC)[C@@H](C(=O)O)N(C(=O)OC(C)C)[C@H]1c1ccccc1 [II-419],> 200%,1000 to 10000 nM,+++ (≥350),1000 to 10000 nM
COCC1(c2ccc(OC)c(CN[C@H]3[C@H](C(C)(C)C)[C@@H](C(=O)O)N(C(=O)C4CCCCC4)[C@H]3c3ccccc3)c2)CC1 [II-420],100 to 200%,1000 to 10000 nM,+++ (≥350),1000 to 10000 nM
COc1ncc(C2(C)CC2(F)F)cc1CN[C@H]1[C@H](C(C)(C)C)[C@@H](C(=O)O)N(C(=O)C2CCCCC2)[C@H]1c1ccccc1 (some centres unmarked) [II-422],100 to 200%,< 1000 nM,+++ (≥350),< 1000 nM
COc1ncc(-c2ccccc2)cc1CN[C@H]1[C@H](C(C)(C)C)[C@@H](C(=O)O)N(C(=O)C2CCCCC2)[C@H]1c1ccccc1F [II-423],100 to 200%,< 1000 nM,+++ (≥350),< 1000 nM
COc1ncc(-c2ccccc2F)cc1CN[C@H]1[C@H](C(C)(C)C)[C@@H](C(=O)O)N(C(=O)C2CCCCC2)[C@H]1c1ccccc1F [II-424],100 to 200%,< 1000 nM,+++ (≥350),< 1000 nM
COc1ncc(C(F)(F)F)cc1CN[C@H]1[C@H](C(C)(C)C)[C@@H](C(=O)O)N(C(=O)OC(C)C)[C@H]1c1ccccc1 [II-425],> 200%,1000 to 10000 nM,+++ (≥350),1000 to 10000 nM
COc1nc(C(C)(C)C)ccc1CN[C@H]1[C@H](C(C)(C)C)[C@@H](C(=O)O)N(C(=O)Cc2ccccc2C)[C@H]1c1ccccc1C(C)C [II-427],> 200%,< 1000 nM,+++ (≥350),< 1000 nM
COc1nc(C(C)(C)C)ccc1CN[C@H]1[C@H](C(C)(C)C)[C@@H](C(=O)O)N(C(=O)C2CCC(C)(C)C2)[C@H]1c1ccccc1 (some centres unmarked) [II-428],100 to 200%,1000 to 10000 nM,+++ (≥350),1000 to 10000 nM
COc1nc(C(C)(C)C)ccc1CN[C@H]1[C@H](C(C)(C)C)[C@@H](C(=O)O)N(C(=O)Cc2ccccc2C)[C@H]1c1ccccc1 [II-429],100 to 200%,< 1000 nM,+++ (≥350),< 1000 nM
